This note sets out measurements from US12075697B2, “Inert solution-processable molecular chromophores for organic electronic devices” (The Regents of the University of California, priority 2012, dated 2024).

What all share (type): physicochemical
Data set [1] is described as follows: UV-visible absorption spectroscopy. The settings on record: for optical band gap: from λonset. How it is done:
(§1) Optical properties were investigated using UV-visible absorption spectroscopy. […] Solution cyclic voltammetry measurements indicated the highest occupied molecular orbital (HOMO) and lowest unoccupied molecular orbital (LUMO) were −5.12 and −3.34 eV, respectively, and line up appropriately with the frontier molecular orbitals of common fullerene acceptors.
UV-vis: UV-visible spectroscopy were recorded using either a Beckman Coulter DU 800 series or Perkin Elmer Lambda 750 spectrophotometer at room temperature unless otherwise noted. All solution UV-vis experiments were run in CHCl3. Films were prepared by spin-coating CHCl3 or chlorobenzene solutions onto glass substrates. Films were annealed directly on a hot plate for 2 minutes.

Data set [2] is described as follows: Solution cyclic voltammetry (HOMO/LUMO levels). The method, then:
as §1
Electrochemistry: All electrochemical measurements were performed using CHI instrument model 730B in a standard three-electrode, one compartment configuration equipped with Ag/AgCl electrode, Pt wire and Glassy carbon electrode (dia. 3 mm), as the pseudo reference, counter electrode and working electrode respectively. Glassy carbon electrodes were polished with alumina. The cyclic voltammetry (CV) experiments were performed in anhydrous dichloromethane solution with ˜0.1 M tetrabutylammonium hexafluorophosphate (TBAPF6) as the supporting electrolyte at scan rate 50 mV/s unless otherwise stated. All electrochemical solutions were purged with dry Ar for 15 minutes to deoxygenate the system. Solution CV measurements were carried out with a small molecule concentration of ˜1 mg/mL in CH2Cl2. Ferrocene was used as an internal standard. The HOMO and LUMO levels were obtained by correlating the onsets (Eox^Fc/Fc+, Erd^Fc/Fc+) to the normal hydrogen electrode (NHE), assuming HOMO of Fc/Fc^+ to be 4.88 eV.

Data set [3] in a line: Acid sensitivity: solution absorption profile as function of trifluoroacetic acid concentration. The conditions noted are these: trifluoroacetic acid in chloroform, up to ten equivalents. The source says:
To probe acid sensitivity, the solution absorption profiles of p-DTS(FBTTh2)2 (see Scheme 1, above) and d-DTS(PTTh2)2
[drawing 71] a pyridine-containing analog, were monitored as function of concentration of trifluoroacetic acid.

Take `CCCCCCc1ccc(-c2ccc(-c3cc(F)c(-c4cc5c(s4)-c4sc(-c6c(F)cc(-c7ccc(-c8ccc(CCCCCC)s8)s7)c7nsnc67)cc4[Si]5(CC(CC)CCCC)CC(CC)CCCC)c4nsnc34)s2)s1` (stereo not drawn) [p-DTS(FBTTh2)2, 7,7′-(4,4-bis(2-ethylhexyl)-4H-silolo[3,2-b:4,5-b′]dithiophene-2,6-diyl)bis(6-fluoro-4-(5′-hexyl-[2,2′-bithiophen]-5-yl)benzo[c][1,2,5]thiadiazole)]: in data set [1] (solid state (thin film)), the λmax came to 678 nm and the λonset is 800 nm. In addition, the optical band gap in data set [1] (solid state) turned out to be 1.55 eV. For the same compound, in data set [1] (solution (chloroform)), the λmax came to 590 nm, the λonset turned out to be 670 nm and the optical band gap turned out to be 1.85 eV. In addition, in data set [2], the “highest occupied molecular orbital (HOMO)” value was −5.12 eV and the “lowest unoccupied molecular orbital (LUMO)” value is given as −3.34 eV. Also, in data set [3], the “change of absorption spectrum on addition of acid” value was “remains effectively unchanged”.
